The results in this text go back to ChEMBL document CHEMBL5653627 (J Neurochem, 2017).

The source made the active and inactive calls. The calls are words filed in the database; no cut-off is given here.

The subject of series [1] is SMA-560. Description: In vivo inhibition of TIE-2 in VM/Dk mouse xenografted with mouse SMA-560 cells assessed as decrease in TIE-2 expression in brain blood vessels at 100 mg/kg,po daily with 12 Gy irradition after 2days of treatment initiation by immunohistochemistry analysis. In kind it is functional, organism-based.
The test system of series [2] is SMA-540. Description: Antitumor activity against mouse SMA-540 cells xenografted in VM/Dk mouse assessed as decrease in tumor volume at 100 mg/kg,po daily by H and E staining based microscopy. In kind it is functional, organism-based.
In series [3] the test system is SMA-560. In words: Antitumor activity against mouse SMA-560 cells xenografted in VM/Dk mouse assessed as decrease in tumor cell proliferation at 100 mg/kg,po daily with 12 Gy irradition after 2days of treatment initiation by Ki67 staining based immunohistochemistry analysis. It is filed as functional, organism-based.
Series [4] deals with SMA-540. Description: Cytotoxicity against mouse SMA-540 cells assessed as reduction in metabolic activity at 0.001 to 100 uM incubated for 72 hrs by MTT assay. The note with it: dose 0.001-100 µM. It is filed as functional, cell-based.
For series [5], the system named is SMA-497. Description: Induction of cell cycle arrest in mouse SMA-497 cells assessed as accumulation at G2/M phase at 0.1 uM incubated for 72 hrs by propidium iodide/RNase staining based flow cytomtery (Rvb= 14%). It is filed as functional.
Series [6] deals with SMA-560. Description: Anti-clonogenicic activity in mouse SMA-560 cells assessed as reduction in colony formation at 0.001 to 10 uM and measured after 10 days by MTT based clonogenic survival assay. In kind it is functional, cell-based. The note with it: dose 0.001-10 µM, time 10.0 day.
Series [7] relates to SMA-497. Description: Induction of cell cycle arrest in mouse SMA-497 cells assessed as accumulation at sub G1 phase at 0.1 uM incubated for 72 hrs by propidium iodide/RNase staining based flow cytomtery (Rvb= 2%). In kind it is functional.
For series [8], the target named is T1, Discoidin domain-containing receptor 2 (Homo sapiens, UniProt Q16832).
T1 sequence (Q16832 whole entry): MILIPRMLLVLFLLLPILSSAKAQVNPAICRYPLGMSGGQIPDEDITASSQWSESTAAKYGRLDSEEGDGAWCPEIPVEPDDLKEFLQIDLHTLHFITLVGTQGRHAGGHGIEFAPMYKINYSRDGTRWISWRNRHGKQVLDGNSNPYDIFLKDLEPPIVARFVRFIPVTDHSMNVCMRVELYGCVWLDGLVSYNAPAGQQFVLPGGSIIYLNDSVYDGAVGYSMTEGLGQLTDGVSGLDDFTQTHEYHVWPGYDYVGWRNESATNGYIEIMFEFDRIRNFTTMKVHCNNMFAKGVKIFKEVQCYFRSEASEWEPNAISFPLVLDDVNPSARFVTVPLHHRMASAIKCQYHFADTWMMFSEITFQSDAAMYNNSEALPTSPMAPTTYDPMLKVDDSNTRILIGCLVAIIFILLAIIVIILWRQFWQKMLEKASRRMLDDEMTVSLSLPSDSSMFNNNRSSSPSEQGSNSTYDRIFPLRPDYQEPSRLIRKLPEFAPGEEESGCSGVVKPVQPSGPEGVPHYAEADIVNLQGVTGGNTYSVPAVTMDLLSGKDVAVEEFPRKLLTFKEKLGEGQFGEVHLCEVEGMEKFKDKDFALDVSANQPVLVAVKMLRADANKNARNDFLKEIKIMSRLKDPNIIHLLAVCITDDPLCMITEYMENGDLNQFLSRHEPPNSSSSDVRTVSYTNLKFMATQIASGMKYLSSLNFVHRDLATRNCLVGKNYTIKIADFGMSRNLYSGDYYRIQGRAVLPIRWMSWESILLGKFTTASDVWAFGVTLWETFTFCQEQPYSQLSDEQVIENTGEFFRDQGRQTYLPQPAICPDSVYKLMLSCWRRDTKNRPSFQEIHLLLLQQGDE
Description: Binding affinity to DDR2 (unknown origin) assessed as dissociation constant by KINOME scan assay.

Series [9] deals with SMA-560. In words: Anti-clonogenicic activity in mouse SMA-560 cells assessed as reduction in colony formation at 0.1 to 1 uM preincubated for 6 hrs followed by temozolomide addition and measured after 10 days by MTT based clonogenic survival assay. In kind it is functional, cell-based. As to conditions: dose 0.1-1 µM, time 246.0 hrs.
In another series the test system is GL261. Description: Antitumor activity against mouse GL261 cells xenografted in C57Bl/6 mouse assessed as decrease in number of CD31-positive intra-tumoral vessels in tumor at 100 mg/kg,po daily by immunohistochemistry analysis. It is filed as functional, organism-based.
For series [10], the system named is SMA-497. Description: Anti-clonogenicic activity in mouse SMA-497 cells assessed as reduction in colony formation at 0.1 to 1 uM preincubated for 6 hrs followed by 1 to 9 Gy irradiation with and measured after 10 days by MTT based clonogenic survival assay. In kind it is functional, cell-based. The note with it: dose 0.1-1 µM, time 246.0 hrs.
In series [11] the test system is SMA-497. In words: Anti-clonogenicic activity in mouse SMA-497 cells assessed as reduction in colony formation at 0.001 to 10 uM and measured after 10 days by MTT based clonogenic survival assay. As to conditions: dose 0.001-10 µM, time 10.0 day. It is filed as functional, cell-based.
Series [12] has as its system SMA-497. In words: Antitumor activity against mouse SMA-497 cells xenografted in VM/Dk mouse assessed as increase in number of tumor-infiltrating CD11b positive monocytes/microglia in tumor at 100 mg/kg,po daily with 12 Gy irradition after 2days of treatment initiation by immunohistochemistry analysis. It is filed as functional, organism-based.
Series [13] has as its system SMA-560. Description: Antitumor activity against mouse SMA-560 cells xenografted in VM/Dk mouse assessed as increase in number of tumor-infiltrating CD11b positive monocytes/microglia in tumor at 100 mg/kg,po daily by immunohistochemistry analysis. In kind it is functional, organism-based.
For series [14], the system named is SMA-497. Description: Antitumor activity against mouse SMA-497 cells xenografted in VM/Dk mouse assessed as tumor cell proliferation at 100 mg/kg,po daily by Ki67 staining based immunohistochemistry analysis. It is filed as functional, organism-based.
Series [15] deals with SMA-497. In words: Induction of apoptosis in mouse SMA-497 cells assessed as live cells at 0.1 uM incubated for 72 hrs by Annexin V-FITC/PI staining based flow cytometric analysis (reference value: 83.4%). It is filed as functional.
The subject of series [16] is SMA-560. In words: Anti-clonogenicic activity in mouse SMA-560 cells assessed as reduction in colony formation at 0.1 to 1 uM preincubated for 6 hrs followed by 1 to 9 Gy irradiation with and measured after 10 days by MTT based clonogenic survival assay. In kind it is functional, cell-based. As to conditions: dose 0.1-1 µM, time 246.0 hrs.
Series [17] is described as follows: Toxicity in VM/Dk mouse xenografted with mouse SMA-560 cells assessed as survival rate at 100 mg/kg,po daily with 12 Gy irradition after 2days of treatment initiation (Rvb=30%). In kind it is organism-based. The note with it: in vivo, 48 h.
Series [18] in a line: Toxicity in VM/Dk mouse xenografted with mouse SMA-497 cells assessed as survival rate at 100 mg/kg,po daily with 12 Gy irradition after 2days of treatment initiation (Rvb=17%). In kind it is organism-based. The note with it: in vivo, 48 h.
Series [19] deals with SMA-497. In words: Induction of cell cycle arrest in mouse SMA-497 cells assessed as accumulation at S phase at 0.1 uM incubated for 72 hrs by propidium iodide/RNase staining based flow cytomtery (Rvb= 8%). It is filed as functional.
Series [20] relates to SMA-497. In words: Induction of apoptosis in mouse SMA-497 cells assessed as early apoptotic cells at 0.1 uM incubated for 72 hrs by Annexin V-FITC/PI staining based flow cytometric analysis (reference value: 0.015%). It is filed as functional.
The target in a further series is Angiopoietin-1 receptor (Homo sapiens, UniProt Q02763). Description: Inhibition of TIE2 autophosphorylation in human HUVEC cells by Western blot analysis. It is filed as cell-based.
Series [21] concerns SMA-560. In words: Induction of cell cycle arrest in mouse SMA-560 cells assessed as accumulation at G2/M phase at 0.1 uM incubated for 72 hrs by propidium iodide/RNase staining based flow cytomtery (Rvb= 25%). In kind it is functional.

Chain of Angiopoietin-1 receptor (Q02763 whole entry): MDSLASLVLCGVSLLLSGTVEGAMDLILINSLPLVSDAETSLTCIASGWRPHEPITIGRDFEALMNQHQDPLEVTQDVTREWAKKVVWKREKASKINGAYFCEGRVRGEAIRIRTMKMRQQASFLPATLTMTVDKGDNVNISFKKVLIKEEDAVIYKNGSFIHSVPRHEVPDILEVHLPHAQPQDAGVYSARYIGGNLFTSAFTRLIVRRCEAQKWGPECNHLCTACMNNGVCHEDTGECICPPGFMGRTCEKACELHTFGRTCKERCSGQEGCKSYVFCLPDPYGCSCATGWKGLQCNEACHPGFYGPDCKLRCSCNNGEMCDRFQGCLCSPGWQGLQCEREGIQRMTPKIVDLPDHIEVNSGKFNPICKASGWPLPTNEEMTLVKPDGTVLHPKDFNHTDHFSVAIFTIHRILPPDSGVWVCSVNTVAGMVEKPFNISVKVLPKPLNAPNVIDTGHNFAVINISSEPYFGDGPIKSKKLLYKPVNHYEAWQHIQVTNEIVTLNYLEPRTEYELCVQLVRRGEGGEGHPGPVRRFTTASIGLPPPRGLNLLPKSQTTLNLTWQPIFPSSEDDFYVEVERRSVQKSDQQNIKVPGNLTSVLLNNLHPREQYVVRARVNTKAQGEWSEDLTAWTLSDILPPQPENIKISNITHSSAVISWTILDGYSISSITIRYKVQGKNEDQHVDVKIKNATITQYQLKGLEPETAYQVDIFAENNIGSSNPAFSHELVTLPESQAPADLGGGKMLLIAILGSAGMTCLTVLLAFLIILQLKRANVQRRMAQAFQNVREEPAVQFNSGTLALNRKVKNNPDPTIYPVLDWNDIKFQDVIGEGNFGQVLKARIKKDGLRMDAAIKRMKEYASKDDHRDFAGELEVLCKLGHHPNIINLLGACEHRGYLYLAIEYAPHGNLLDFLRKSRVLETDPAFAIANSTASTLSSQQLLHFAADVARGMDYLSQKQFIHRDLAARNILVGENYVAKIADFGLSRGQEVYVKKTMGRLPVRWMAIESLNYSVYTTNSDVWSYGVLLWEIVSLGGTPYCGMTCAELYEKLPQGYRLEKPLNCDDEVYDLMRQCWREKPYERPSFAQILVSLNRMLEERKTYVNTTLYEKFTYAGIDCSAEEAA

With `Cc1cc(C)c(-n2ccn3nc(-c4cccnc4)cc23)cc1NC(=O)c1cc(C#N)cc(S(F)(F)(F)(F)F)c1` [BAY-826], the inhibition result in the series on SMA-560 [1] was “Active”. The outcome with SMA-540 [2], in the series on SMA-560 [3], with SMA-540 [4], in the series on SMA-560 [6], in the series with SMA-560 [9] and with SMA-497 [10] was inactive. The result in the series with SMA-497 [11], in the series on SMA-560 [13], in the series with SMA-497 [14] and in the series with SMA-560 [16] was inactive. Further, the Activity in the series with SMA-497 [5] amounted to 10%; in the series with SMA-497 [7], 4%; in the series on SMA-497 [15], 91.4%; in the series with SMA-497 [19], 11%; in the series with SMA-497 [20], 0%; with SMA-560 [21] it was 28%. The Kd in [8] stood at 1.3 nM. Further, the outcome with GL261 and in the series with SMA-497 [12] was Active. The Survival in series [17] is recorded as 33.5%; in series [18], 17%. Moreover, the EC50 at Angiopoietin-1 receptor was 1.3 nM.
